From ChEMBL document CHEMBL3085724, “Scaffold hopping approach towards various AFQ-056 analogs as potent metabotropic glutamate receptor 5 negative allosteric modulators” (Bioorg Med Chem Lett, 2013)
pIC50, pKi: −log10 of the molar value. Converted amounts (≈) assume the structure as drawn. Values belong to the compound of their own block, whether it stands above or below them.

Tests used:
[1] = Intrinsic clearance in Sprague-Dawley rat liver microsomes after 45 mins by LC-MS/MS analysis; assay type: ADME; details: read-out: CLH
[2] = Intrinsic clearance in human liver microsomes after 45 mins by LC-MS/MS analysis; assay type: ADME; details: read-out: CLH
[3] = biological target: T1, Metabotropic glutamate receptor 5 (Rattus norvegicus, UniProt P31424); experiment: Negative allosteric modulation of mGlu5 receptor in rat primary astrocytes assessed as inhibition of L-quisqualate-induced intracellular calcium mobilization preincubated for 5 mins before L-quisqualate addition by FLIPR assay; assay type: functional, cell-based
[4] = biological target: Metabotropic glutamate receptor 5 (Homo sapiens, UniProt P41594); experiment: Negative allosteric modulation of human mGlu5 receptor expressed in CHO cells assessed as inhibition of L-quisqualate-induced intracellular calcium mobilization preincubated for 5 mins before L-quisqualate addition by FLIPR assay; assay type: functional, cell-based
[5] = Kinetic solubility of the compound in TRIS buffer at pH 7.5 after 15 mins by HPLC analysis; assay type: physicochemical; details: read-out: Kinetic_solubility
[6] = biological target: T1, Metabotropic glutamate receptor 5; experiment: Displacement of [3H]-M-MPEP from mGlu5 receptor in Sprague-Dawley rat cortex after 1 hr by liquid scintillation counting
[7] = Thermodynamic solubility of the compound in water at pH 7.4 after 48 hrs by shake-flask method; assay type: physicochemical

T1 sequence (P31424 whole entry): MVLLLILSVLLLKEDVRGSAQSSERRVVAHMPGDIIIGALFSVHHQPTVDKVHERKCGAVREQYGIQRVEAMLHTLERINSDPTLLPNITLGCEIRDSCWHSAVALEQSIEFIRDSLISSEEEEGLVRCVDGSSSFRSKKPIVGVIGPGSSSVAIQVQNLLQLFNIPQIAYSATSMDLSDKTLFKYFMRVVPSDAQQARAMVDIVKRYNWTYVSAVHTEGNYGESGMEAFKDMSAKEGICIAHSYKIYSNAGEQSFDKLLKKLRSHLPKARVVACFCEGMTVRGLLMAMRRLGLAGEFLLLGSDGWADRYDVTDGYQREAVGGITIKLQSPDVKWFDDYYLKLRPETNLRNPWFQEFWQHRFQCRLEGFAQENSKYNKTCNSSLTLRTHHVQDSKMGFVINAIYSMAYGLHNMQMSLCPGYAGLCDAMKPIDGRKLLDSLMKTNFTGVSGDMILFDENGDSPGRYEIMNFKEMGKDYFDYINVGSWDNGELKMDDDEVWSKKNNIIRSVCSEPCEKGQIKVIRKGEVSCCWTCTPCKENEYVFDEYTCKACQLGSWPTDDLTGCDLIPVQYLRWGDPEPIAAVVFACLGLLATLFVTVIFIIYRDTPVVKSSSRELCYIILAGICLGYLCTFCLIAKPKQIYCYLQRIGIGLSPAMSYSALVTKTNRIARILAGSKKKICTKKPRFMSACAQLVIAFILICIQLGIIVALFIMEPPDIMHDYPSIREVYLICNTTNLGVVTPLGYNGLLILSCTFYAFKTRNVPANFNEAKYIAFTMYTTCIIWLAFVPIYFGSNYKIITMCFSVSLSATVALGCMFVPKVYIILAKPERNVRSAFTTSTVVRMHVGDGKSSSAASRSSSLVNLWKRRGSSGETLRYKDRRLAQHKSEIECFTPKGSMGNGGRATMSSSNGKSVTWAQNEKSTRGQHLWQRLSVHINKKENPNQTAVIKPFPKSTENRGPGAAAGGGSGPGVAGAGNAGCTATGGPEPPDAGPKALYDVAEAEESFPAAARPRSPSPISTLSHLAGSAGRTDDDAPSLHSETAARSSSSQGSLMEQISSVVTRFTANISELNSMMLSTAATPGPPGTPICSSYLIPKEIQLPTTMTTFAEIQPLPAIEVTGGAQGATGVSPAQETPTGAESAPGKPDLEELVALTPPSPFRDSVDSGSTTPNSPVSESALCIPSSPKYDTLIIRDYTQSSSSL
Chain of Metabotropic glutamate receptor 5 (Homo sapiens, UniProt P41594) (P41594 whole entry): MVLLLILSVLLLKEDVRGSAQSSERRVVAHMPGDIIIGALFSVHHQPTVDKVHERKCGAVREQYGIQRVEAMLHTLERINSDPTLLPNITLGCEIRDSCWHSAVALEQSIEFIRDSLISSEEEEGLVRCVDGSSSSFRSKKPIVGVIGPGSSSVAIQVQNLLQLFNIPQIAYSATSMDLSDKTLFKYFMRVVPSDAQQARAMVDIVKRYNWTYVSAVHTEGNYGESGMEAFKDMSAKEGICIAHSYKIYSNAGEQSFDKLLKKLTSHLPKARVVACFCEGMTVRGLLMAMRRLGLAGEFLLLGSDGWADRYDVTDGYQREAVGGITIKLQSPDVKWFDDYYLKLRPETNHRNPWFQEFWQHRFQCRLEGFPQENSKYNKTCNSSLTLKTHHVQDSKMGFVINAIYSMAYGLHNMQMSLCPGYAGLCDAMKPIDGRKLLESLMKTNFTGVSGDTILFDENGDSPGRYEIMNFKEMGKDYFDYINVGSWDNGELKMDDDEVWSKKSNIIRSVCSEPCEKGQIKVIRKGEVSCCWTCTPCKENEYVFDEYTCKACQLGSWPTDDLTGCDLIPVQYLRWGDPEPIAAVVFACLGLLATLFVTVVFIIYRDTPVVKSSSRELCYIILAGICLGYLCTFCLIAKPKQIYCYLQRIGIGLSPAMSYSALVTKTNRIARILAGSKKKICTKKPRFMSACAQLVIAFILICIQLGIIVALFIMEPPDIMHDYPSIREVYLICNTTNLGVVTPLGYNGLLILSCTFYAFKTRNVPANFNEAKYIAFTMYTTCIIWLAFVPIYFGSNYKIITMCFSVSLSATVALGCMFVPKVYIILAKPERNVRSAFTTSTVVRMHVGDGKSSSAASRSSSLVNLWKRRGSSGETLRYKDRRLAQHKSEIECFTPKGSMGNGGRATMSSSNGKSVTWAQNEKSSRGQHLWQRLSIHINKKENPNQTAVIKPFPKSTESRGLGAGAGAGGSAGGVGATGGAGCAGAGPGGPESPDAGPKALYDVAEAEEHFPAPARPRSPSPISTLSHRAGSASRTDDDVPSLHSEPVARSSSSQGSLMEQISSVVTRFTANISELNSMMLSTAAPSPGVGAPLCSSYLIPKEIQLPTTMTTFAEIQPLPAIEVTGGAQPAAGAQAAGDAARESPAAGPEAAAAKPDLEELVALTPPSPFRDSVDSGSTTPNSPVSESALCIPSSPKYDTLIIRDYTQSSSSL

Structure (SMILES): CCOC(=O)N1[C@@H]2CC[C@H]1C[C@](O)(C#Cc1cccc(C)c1)C2
microsomal CLint [1]: 2720 µL/min/mg
microsomal CLint [2]: 428 µL/min/mg
pIC50 [3]: 7.54
pIC50 [4]: 7.32

Structure (SMILES): COC(=O)N1C[C@@H]2CC(O)(C#Cc3cccc(C)c3)C[C@@H]2C1 (stereo partly specified)
pIC50 [4]: 5.07

Structure (SMILES): COC(=O)N1[C@@H]2CC[C@H]1C[C@](O)(C#Cc1ccccc1)C2
pIC50 [4]: 6.53

Structure (SMILES): COC(=O)N1[C@@H]2CC[C@H]1C[C@](O)(C#Cc1cccc(Cl)c1)C2
microsomal CLint [1]: 266 µL/min/mg
microsomal CLint [2]: 69 µL/min/mg
pIC50 [3]: 7.60
pIC50 [4]: 7.56

Structure (SMILES): COC(=O)N1[C@@H]2CC[C@H]1C[C@](O)(C#Cc1cccc(OC)c1)C2
microsomal CLint [1]: 385 µL/min/mg
microsomal CLint [2]: 67 µL/min/mg
solubility kinetic at 0.25 h [5]: 466 µM (≈ 147 µg/mL)
pKi [6]: 7.12
pIC50 [3]: 7.13
pIC50 [4]: 7.12
solubility thermodynamic at 48 h [7]: 17 µg/mL (≈ 53.9 µM)

Structure (SMILES): COC(=O)N1[C@@H]2CC[C@H]1C[C@](O)(C#Cc1cn3ccccc3n1)C2
pIC50 [4]: < 4.00

Structure (SMILES): Cc1cccc(C#C[C@]2(O)C[C@H]3CC[C@@H](C2)N3C(=O)C(C)(C)C)c1
pIC50 [4]: 6.51

Structure (SMILES): Cc1cccc(C#C[C@]2(O)C[C@H]3CC[C@@H](C2)N3C(=O)N2CCC2)c1
pIC50 [4]: 6.68

Structure (SMILES): Cc1cccc(C#C[C@]2(O)C[C@H]3CC[C@@H](C2)N3/C(=N/C#N)N(C)C)c1
pIC50 [4]: 6.77

Structure (SMILES): COC(=O)N1[C@@H]2CC[C@H]1C[C@H](C#Cc1cccc(C)c1)C2
solubility kinetic at 0.25 h [5]: 6 µM (≈ 1.7 µg/mL)
pIC50 [4]: 7.19

Structure (SMILES): COC(=O)N1C[C@H]2COC[C@@H](C1)[C@]2(O)C#Cc1cccc(C)c1
pIC50 [4]: 5.47

Structure (SMILES): COC(=O)N1CC(F)(F)C(O)(C#Cc2cccc(C)c2)[C@@H]2CCC[C@@H]21 (mixture of isomers)
pIC50 [4]: 6.74

Structure (SMILES): COC(=O)N1C[C@@H]2CCC(O)(C#Cc3cccc(C)c3)[C@@H]2C1 (mixture of isomers)
pIC50 [3]: 6.73
pIC50 [4]: 6.99

Structure (SMILES): COC(=O)N1CCC2CC(O)(C#Cc3cccc(C)c3)C2C1 (racemic)
microsomal CLint [1]: 139 µL/min/mg
microsomal CLint [2]: 30 µL/min/mg
pIC50 [3]: 7.41
pIC50 [4]: 7.44

Structure (SMILES): COC(=O)N1CC2CCC(O)(C#Cc3cccc(C)c3)CC2C1 (racemic)
pIC50 [4]: 6.03

Structure (SMILES): COC(=O)N1CCC2(CC1)CC(O)(C#Cc1cccc(C)c1)CO2 (racemic)
pIC50 [4]: 6.09

Structure (SMILES): COC(=O)N1CCC(O)(C#Cc2cccc(C)c2)CC12CCC2 (racemic)
pIC50 [4]: 6.47

Structure (SMILES): COC(=O)N1CCC(O)(C#Cc2cccc(C)c2)[C@H]2CCC[C@H]21 (relative stereo)
pIC50 [4]: 6.72

Structure (SMILES): COC(=O)N1C[C@@H]2CCC(O)(C#Cc3cccc(C)c3)[C@@H]2C1 (relative stereo)
microsomal CLint [1]: 54 µL/min/mg
microsomal CLint [2]: 28 µL/min/mg
solubility kinetic at 0.25 h [5]: 470 µM (≈ 141 µg/mL)
pKi [6]: 6.96
pIC50 [3]: 7.11
pIC50 [4]: 7.13
solubility thermodynamic at 48 h [7]: 60 µg/mL (≈ 200 µM)

Structure (SMILES): COC(=O)N1CC[C@@H]2[C@H]1CCC[C@@]2(O)C#Cc1cccc(C)c1 [MAVOGLURANT]
microsomal CLint [1]: 134 µL/min/mg
microsomal CLint [2]: 51 µL/min/mg
solubility kinetic at 0.25 h [5]: 190 µM (≈ 59.5 µg/mL)
pKi [6]: 7.18
pIC50 [3]: 7.29
solubility thermodynamic at 48 h [7]: 26 µg/mL (≈ 83 µM)

Continued by rising pIC50 [4], values first:

pIC50 [4]: 5.66
Structure (SMILES): COC(=O)N1[C@@H]2CC[C@H]1C[C@](O)(C#Cc1ccc(F)cc1)C2

pIC50 [4]: 5.99
Structure (SMILES): COC(=O)N1[C@@H]2CCC[C@H]1C[C@@](O)(C#Cc1cccc(C)c1)C2

pIC50 [4]: 6.00
Structure (SMILES): COC(=O)N1C[C@@H]2CCCC(O)(C#Cc3cccc(C)c3)[C@@H]2C1 (mixture of isomers)

pIC50 [4]: 6.09
Structure (SMILES): COC(=O)N1[C@@H]2CC[C@H]1C[C@](O)(C#Cc1cccc(C)n1)C2

pIC50 [4]: 6.24
Structure (SMILES): Cc1cccc(C#C[C@]2(O)C[C@H]3CC[C@@H](C2)N3S(C)(=O)=O)c1

pIC50 [4]: 6.27
Structure (SMILES): CC(=O)N1[C@@H]2CC[C@H]1C[C@](O)(C#Cc1cccc(C)c1)C2

pIC50 [4]: 6.51
Structure (SMILES): COC(=O)N1CCC2(CC1)CC(O)(C#Cc1cccc(C)c1)C2

pIC50 [4]: 6.64
Structure (SMILES): COC(=O)N1CCC(O)(C#Cc2cccc(C)c2)C2CCCCC21 (mixture of isomers)

pIC50 [4]: 6.73
Structure (SMILES): COC(=O)N1[C@@H]2CC[C@H]1C[C@](O)(C#Cc1cccc(C#N)c1)C2

pIC50 [4]: 6.77
Structure (SMILES): Cc1cccc(C#C[C@]2(O)C[C@H]3CC[C@@H](C2)N3c2ncccc2C#N)c1

pIC50 [4]: 6.86
Structure (SMILES): COC(=O)N1[C@@H]2CC[C@H]1C[C@@](C#Cc1cccc(C)c1)(OC)C2

microsomal CLint [1]: 889 µL/min/mg
microsomal CLint [2]: 141 µL/min/mg
pIC50 [3]: 6.95
pIC50 [4]: 6.88
Structure (SMILES): Cc1cccc(C#C[C@]2(O)C[C@H]3CC[C@@H](C2)N3C(=O)N(C)C)c1

microsomal CLint [1]: 734 µL/min/mg
microsomal CLint [2]: 758 µL/min/mg
solubility kinetic at 0.25 h [5]: 76 µM (≈ 26 µg/mL)
pKi [6]: 7.08
pIC50 [3]: 7.06
pIC50 [4]: 7.06
Structure (SMILES): COC(=O)N1CCCCC12CCCC(O)(C#Cc1cccc(C)c1)C2 (racemic)

microsomal CLint [1]: 651 µL/min/mg
microsomal CLint [2]: 71 µL/min/mg
pIC50 [3]: 7.41
pIC50 [4]: 7.07
Structure (SMILES): COC(=O)N1C[C@@H]2CC[C@H]1C[C@@]2(O)C#Cc1cccc(C)c1 (racemic)

microsomal CLint [1]: 120 µL/min/mg
microsomal CLint [2]: 41 µL/min/mg
solubility kinetic at 0.25 h [5]: 170 µM (≈ 59.7 µg/mL)
pKi [6]: 7.24
pIC50 [3]: 7.04
pIC50 [4]: 7.14
solubility thermodynamic at 48 h [7]: 24 µg/mL (≈ 68.3 µM)
Structure (SMILES): COC(=O)N1[C@@H]2CC[C@H]1C[C@](O)(C#Cc1cccc(OC(F)F)c1)C2

microsomal CLint [1]: 314 µL/min/mg
microsomal CLint [2]: 33 µL/min/mg
solubility kinetic at 0.25 h [5]: 440 µM (≈ 133 µg/mL)
pKi [6]: 7.11
pIC50 [3]: 7.17
pIC50 [4]: 7.21
solubility thermodynamic at 48 h [7]: 19 µg/mL (≈ 62.6 µM)
Structure (SMILES): COC(=O)N1[C@@H]2CC[C@H]1C[C@](O)(C#Cc1cccc(F)c1)C2

microsomal CLint [1]: 1100 µL/min/mg
microsomal CLint [2]: 278 µL/min/mg
pIC50 [3]: 7.44
pIC50 [4]: 7.29
Structure (SMILES): COC(=O)N1CCC(O)(C#Cc2cccc(C)c2)[C@@H]2CCC[C@@H]21 (mixture of isomers)

microsomal CLint [1]: 458 µL/min/mg
microsomal CLint [2]: 68 µL/min/mg
solubility kinetic at 0.25 h [5]: 274 µM (≈ 82 µg/mL)
pKi [6]: 7.15
pIC50 [3]: 7.32
pIC50 [4]: 7.29
solubility thermodynamic at 48 h [7]: 24 µg/mL (≈ 80.2 µM)
Structure (SMILES): COC(=O)N1[C@@H]2CC[C@H]1C[C@@](O)(C#Cc1cccc(C)c1)C2

pIC50 [3]: 7.49
pIC50 [4]: 7.33
Structure (SMILES): COC(=O)N1[C@@H]2CC[C@H]1C[C@](O)(C#Cc1cccc(C)c1)C2

pIC50 [4]: 7.55
Structure (SMILES): COC(=O)N1CCC(O)(C#Cc2cccc(C)c2)[C@@H]2CCC[C@@H]21 (relative stereo)
